Consider 26 molecules from US9932354B2, “Imidazo-oxadiazole and imidazo-thiadiazole derivatives” (Ares Trading S.A., priority 2012, dated 2018).

The IC50 is the concentration that inhibits the measured activity by half.

Experiment [1] deals with Amyloid-β peptide release (AβTotal), HEK cells overexpressing APP (HEK-APP). As to the kind of experiment: Amyloid-β peptide release (AβTotal) assay, AlphaLISA on supernatant of HEK-APP cells. The format is cell-based. The following applies: ratio Abtot vs Ab42, HEK-APP cells, 24 h. On the procedure: (§1) Amyloid-β Peptide Release (Aβ42 & AβTotal) Assay to Determine IC50 Values.
(§2) Compounds are dissolved in and diluted in 100% DMSO and incubated with HEK-APP cells for 24 h at 37° C. in 5% CO2. The supernatant from HEK-APP cells are mixed with antibodies: for Aβ42 detection: AlphaLISA Amyloid-β 1-42 Kit (Perkin Elmer AL203L) Anti-Amyloid β1-42-specific antibody acceptor beads, biotinylated anti-Amyloid-“β1-42” antibody and streptavidin (SA) donor beads diluted in AlphaLISA buffer (to the instructions of the supplier). For Aβ total detection: Custom Anti-Amyloid-βtotal acceptor beads (6E10 acceptor beads), biotinylated anti-Amyloid “β1-42” antibody (Perkin Elmer AL203L) and streptavidin (SA) donor beads diluted in AlphaLISA buffer (to the instructions of the supplier). After addition of supernatant to the antibody mix, the assay is incubated for 4.5 h. Amyloid-β peptide release (Aβ42 & AβTotal) is measured with a Pherastar FS (BMG) multimode reader using the alphascreen module.

For experiment [2], the system named is Amyloid-β peptide release (Aβ42), HEK cells overexpressing APP (HEK-APP). The experiment is described as follows: Amyloid-β peptide release (Aβ42) assay, AlphaLISA on supernatant of HEK-APP cells. The format is cell-based. The following applies: Homo sapiens, HEK293, 24 h incubation with compound, read-out: Ab42 IC50 Ranges. The method, then: as §1, §2
Background: Bead proximity is the source of the signal in Alpha formats.

Consider `Cc1cc(-c2nn3c(C)ncc3o2)ccc1NC(=O)Cc1ccccc1C(F)(F)F` [Example 40, N-(2-methyl-4-(5-methylimidazo[5,1-b][1,3,4]oxadiazol-2-yl)phenyl)-2-(2-(trifluoromethyl)phenyl)acetamide], for which the Abtot/Ab42 selectivity ranges entry in experiment [1] is on record as “b (b: 100 fold > selectivity ≥ 50 fold)”. For the same molecule, in experiment [2], the IC50 fell in the range of 500 to 1000 nM. Taken in the same sequence, the figures for `Cc1ccc(C)c(CC(=O)Nc2ccc(-c3nn4c(C)ncc4o3)cc2)c1` [Example 50] were “c (c: 50 fold > selectivity ≥ 10 fold)” and 500 to 1000 nM. Taken in the same sequence, the figures for `COc1cc(NC(=O)Cc2ccc(OC(F)(F)F)cc2)ccc1-c1nn2c(C)ncc2o1` [Example 34, N-(3-methoxy-4-(5-methylimidazo[5,1-b][1,3,4]oxadiazol-2-yl)phenyl)-2-(4-(trifluoromethoxy)phenyl)acetamide] were “b (b: 100 fold > selectivity ≥ 50 fold)” and 500 to 1000 nM. As for `Cc1cc(-c2nn3c(C)ncc3o2)ccc1NC(=O)Cc1ccc(Cl)cc1` [Example 44, 2-(4-chlorophenyl)-N-(2-methyl-4-(5-methylimidazo[5,1-b][1,3,4]oxadiazol-2-yl)phenyl)acetamide], in experiment [1], the Abtot/Ab42 selectivity ranges result is “b (b: 100 fold > selectivity ≥ 50 fold)”. Further, in experiment [2], the half-maximal inhibitory concentration (IC50) fell in the range of 500 to 1000 nM. `Cc1ncc2sc(C(=O)N3CCCC3c3ccc(Cl)cc3)nn12` (stereo not drawn) [Example 118, [2-(4-Chloro-phenyl)-pyrrolidin-1-yl]-(5-methyl-imidazo[5,1-b][1,3,4]thiadiazol-2-yl)-methanone]: in experiment [2], the IC50 lay in the range of 100 to 500 nM. As for `Cc1cccc(CNc2ccnc(Nc3ccc(-c4nn5c(C)ncc5o4)cc3)n2)c1` [Example 75, N4-(3-methylbenzyl)-N2-(4-(5-methylimidazo[5,1-b][1,3,4]oxadiazol-2-yl)phenyl)pyrimidine-2,4-diamine], the Abtot/Ab42 selectivity ranges entry in experiment [1] is “d (d: 10 fold > selectivity)”. In addition, the concentration for half-maximal inhibition (IC50) in experiment [2] lay within 1000 to 2200 nM. Turning to `Cc1ncc2oc(-c3ccc(Nc4ccn(Cc5ccc(Cl)cc5)n4)cc3)nn12` [Example 29, [1-(4-Chloro-benzyl)-1H-pyrazol-3-yl]-[4-(5-methyl-imidazo[5,1-b][1,2,4]oxadiazol-2-yl)-phenyl]-amine], the Abtot/Ab42 selectivity ranges entry in experiment [1] is “d (d: 10 fold > selectivity)”. The IC50 in experiment [2] lay within 1000 to 2200 nM. Taken in the same sequence, the figures for `COc1cc(NC(=O)Cc2cccc(Cl)c2)ccc1-c1nn2c(C)ncc2o1` [Example 33, 2-(3-chlorophenyl)-N-(3-methoxy-4-(5-methylimidazo[5,1-b] [1,3,4]oxadiazol-2-yl)phenyl)acetamide] were “b (b: 100 fold > selectivity ≥ 50 fold)” and 500 to 1000 nM. Regarding `Cc1ncc2oc(-c3ccc(NC(=O)Cc4ccc(F)cc4Cl)cc3)nn12` [Example 65, 2-(2-chloro-4-fluorophenyl)-N-(4-(5-methylimidazo[5,1-b][1,3,4]oxadiazol-2-yl)phenyl)acetamide], in experiment [1], the Abtot/Ab42 selectivity ranges entry is given as “c (c: 50 fold > selectivity ≥ 10 fold)”. Besides, the IC50 in experiment [2] lay within 1000 to 2200 nM. Taken in the same sequence, the figures for `Cc1ncc2oc(-c3ccc(Nc4ccn(Cc5ccc(Cl)c(Cl)c5)n4)cc3)nn12` [Example 30, [1-(3,4-Dichloro-benzyl)-1H-pyrazol-3-yl]-[4-(5-methyl-imidazo[5,1-b][1,2,4]oxadiazol-2-yl)-phenyl]-amine] were “c (c: 50 fold > selectivity ≥ 10 fold)” and 1000 to 2200 nM.

For `Cc1cc(-c2nn3c(C)ncc3o2)ccc1NC(=O)Cc1c(Cl)cc(C(F)(F)F)cc1Cl` [Example 42, 2-(2,6-dichloro-4-(trifluoromethyl)phenyl)-N-(2-methyl-4-(5-methylimidazo[5,1-b][1,3,4]oxadiazol-2-yl)phenyl)acetamide], the Abtot/Ab42 selectivity ranges result in experiment [1] was “b (b: 100 fold > selectivity ≥ 50 fold)”. For the same molecule, the IC50 in experiment [2] is 500 to 1000 nM. Taken in the same sequence, the figures for `COc1cc(NC(=O)Cc2ccccc2C(F)(F)F)ccc1-c1nn2c(C)ncc2o1` [Example 37, N-(3-methoxy-4-(5-methylimidazo[5,1-b][1,3,4]oxadiazol-2-yl)phenyl)-2-(2-(trifluoromethyl)phenyl)acetamide] were “c (c: 50 fold > selectivity ≥ 10 fold)” and 1000 to 2200 nM. Taken in the same sequence, the figures for `Cc1ncc2oc(-c3ccc(NC(=O)Cc4ccc(C(F)(F)F)cc4)cc3)nn12` [Example 48, N-[4-(5-Methyl-imidazo[5,1-b][1,2,4]oxadiazol-2-yl)-phenyl]-2-(4-trifluoromethyl-phenyl)-acetamide] were “c (c: 50 fold > selectivity ≥ 10 fold)” and 1000 to 2200 nM. For `Cc1ncc2oc(-c3ccc(NC(=O)Cc4ccc(OC(F)(F)F)cc4)cn3)nn12` [Example 11, N-[6-(5-Methyl-imidazo[5,1-b][1,2,4]oxadiazol-2-yl)-pyridin-3-yl]-2-(4-trifluoromethoxy-phenyl)-acetamide], the Abtot/Ab42 selectivity ranges entry in experiment [1] was “b (b: 100 fold > selectivity ≥ 50 fold)”. Further, the IC50 in experiment [2] fell in the range of 100 to 500 nM. Turning to `COc1cc(NC(=O)Cc2cccc(C(F)(F)F)c2)ccc1-c1nn2c(C)ncc2o1` [Example 31, N-(3-methoxy-4-(5-methylimidazo[5,1-b][1,3,4]oxadiazol-2-yl)phenyl)-2-(3-(trifluoromethyl)phenyl)acetamide], the Abtot/Ab42 selectivity ranges result in experiment [1] is “a (a: selectivity ≥ 100 fold)”. The IC50 in experiment [2] lay within 100 to 500 nM.

With `Cc1ncc2oc(-c3ccc(NC(=O)Cc4ccccc4C(F)(F)F)cc3)nn12` [Example 1, N-[4-(5-Methyl-imidazo[5,1-b][1,2,4]oxadiazol-2-yl)-phenyl]-2-(2-trifluoromethyl-phenyl)-acetamide], the Abtot/Ab42 selectivity ranges entry in experiment [1] is “b (b: 100 fold > selectivity ≥ 50 fold)”. In addition, the IC50 in experiment [2] is 500 to 1000 nM.

`Cc1ncc2sc(-c3ccc(NC(=O)Cc4ccc(Cl)c(Cl)c4)cc3)nn12` [Example 128, 2-(3,4-Dichloro-phenyl)-N-[4-(5-methyl-imidazo[5,1-b][1,3,4]thiadiazol-2-yl)-phenyl]-acetamide]: in experiment [1], the Abtot/Ab42 selectivity ranges entry is “c (c: 50 fold > selectivity ≥ 10 fold)”. Besides, in experiment [2], the IC50 fell in the range of 500 to 1000 nM. Taken in the same sequence, the figures for `Cc1ncc2sc(C(=O)N3CCCC3c3ccccc3Cl)nn12` (stereo not drawn) [Example 122, [2-(2-Chloro-phenyl)-pyrrolidin-1-yl]-(5-methyl-imidazo[5,1-b][1,3,4]thiadiazol-2-yl)-methanone] were “d (d: 10 fold > selectivity)” and 1000 to 2200 nM. Taken in the same sequence, the figures for `Cc1ncc2sc(-c3ccc(C(=O)NCc4cccc5ccccc45)cc3)nn12` [Example 127, 4-(5-Methyl-imidazo[5,1-b][1,3,4]thiadiazol-2-yl)-N-naphthalen-1-ylmethyl-benzamide] were “b (b: 100 fold > selectivity ≥ 50 fold)” and 500 to 1000 nM. As to `Cc1ncc2sc(C(=O)N3CCCCC3c3ccccc3Cl)nn12` (stereo not drawn) [Example 115, [2-(2-Chloro-phenyl)-piperidin-1-yl]-(5-methyl-imidazo[5,1-b][1,3,4]thiadiazol-2-yl)-methanone], in experiment [1], the Abtot/Ab42 selectivity ranges entry was “d (d: 10 fold > selectivity)”. For the same molecule, the IC50 in experiment [2] lay in the range of 500 to 1000 nM. Taken in the same sequence, the figures for `Cc1ncc2oc(-c3ccc(Nc4ccnc(NCc5ccccc5)n4)cc3)nn12` [Example 72, N2-benzyl-N4-(4-(5-methylimidazo[5,1-b][1,3,4]oxadiazol-2-yl)phenyl)pyrimidine-2,4-diamine] were “d (d: 10 fold > selectivity)” and 1000 to 2200 nM. Taken in the same sequence, the figures for `Cc1ncc2sc(C(=O)N3CCCC3c3ccccc3)nn12` (stereo not drawn) [Example 93, (5-Methyl-imidazo[5,1-b][1,3,4]thiadiazol-2-yl)-(2-phenyl-pyrrolidin-1-yl)-methanone] were “d (d: 10 fold > selectivity)” and 100 to 500 nM.

For the molecule `Cc1ncc2oc(-c3ccc(NC(=O)Cc4cc(F)ccc4C(F)(F)F)cc3)nn12` [Example 66, 2-(5-fluoro-2-(trifluoromethyl)phenyl)-N-(4-(5-methylimidazo [5,1-b][1,3,4]oxadiazol-2-yl)phenyl)acetamide], the Abtot/Ab42 selectivity ranges entry in experiment [1] is “c (c: 50 fold > selectivity ≥ 10 fold)”. For the same molecule, in experiment [2], the concentration for half-maximal inhibition (IC50) is 1000 to 2200 nM. Taken in the same sequence, the figures for `Cc1ncc2oc(-c3ccc(NC(=O)Cc4cccc5ccccc45)cn3)nn12` [Example 13, N-[6-(5-Methyl-imidazo[5,1-b][1,2,4]oxadiazol-2-yl)-pyridin-3-yl]-2-naphthalen-1-yl-acelamide] were “c (c: 50 fold > selectivity ≥ 10 fold)” and 1000 to 2200 nM. For `Cc1ccccc1C1CCCN1C(=O)c1nn2c(C)ncc2s1` (stereo not drawn) [Example 121, (5-Methyl-imidazo[5,1-b][1,3,4]thiadiazol-2-yl)-(2-o-tolyl-pyrrolidin-1-yl)-methanone], in experiment [1], the Abtot/Ab42 selectivity ranges entry was “d (d: 10 fold > selectivity)”. In addition, the IC50 in experiment [2] is 500 to 1000 nM. Consider `Cc1ncc2oc(-c3ccc(NC(=O)Cc4cccc(F)c4F)cn3)nn12` [Example 79, 2-(2,3-Difluoro-phenyl)-N-[6-(5-methyl-imidazo[5,1-b][1,2,4]oxadiazol-2-yl)-pyridin-3-yl]-acetamide], for which, in experiment [1], the Abtot/Ab42 selectivity ranges result is recorded as “c (c: 50 fold > selectivity ≥ 10 fold)”. For the same molecule, the half-maximal inhibitory concentration (IC50) in experiment [2] fell in the range of 1000 to 2200 nM.
